This is an account of results in patent US20070238785A1, “Use of an anti-atherothrombotic compound in obtaining medicaments intended for the treatment of vascular disorders” (priority 2006, published 2007).

Assay [1] concerns sodium-loaded SHR-SP rat. Kind of assay: survival study in sodium-loaded SHR-SP rat. Format: in vivo. The following applies: 30 mg/kg/day in food, 1% NaCl in drinking water, from 10 weeks of age; Carrier group 57 days. On the procedure:
(§1) 10-week old male SHR-SP rats (Charles River) being given 1% NaCl in their drinking water were separated into two groups in random manner and were treated, or not, with the sodium salt of the (R) isomer of the compound of formula (I) (30 mg/kg/day) incorporated in their food.
In a first study, the survival of each group was determined by calculating the percentage of animals alive each day after the start of treatment.
(§2) The results are reported as the mean±S.E.M. Differences are considered significant when P<0.05 after a Student's t test. The survival of the animals is represented on a Kaplan-Meier graph and the results are considered significant when P<0.05 after a log-rank test.

Assay [2] deals with carotid thrombosis. Kind of assay: models of carotid thrombosis in vivo and ex vivo (occlusion time). The settings on record: carotid thrombosis: vascular electrolysis (dog), mechanical lesion (guinea pig), electric stimulation (rat), ex vivo carotid-carotid arterial bypass by glass capillary.
Assay [3] relates to sodium-loaded SHR-SP rat. Kind of assay: 5-week study in sodium-loaded SHR-SP rat (cardiac hypertrophy, urinary 8-OH-dG, plasma thiostatin). The following applies: 30 mg/kg/day in food, 5 weeks, compared to Carrier group. Format: in vivo. Here is the method: as §1
In a second study, the rats were monitored over 5 weeks, between 10 and 15 weeks of age, and were then sacrificed in order to quantify a urinary marker of oxidative stress (8-OH-dG) and a plasma marker reflecting acute inflammation (thiostatin, which in the rat is the equivalent of CRP) and in order to determine cardiac hypertrophy.
During the last 24 hours of monitoring, the animals were placed in individual metabolic cages and the urines were collected in sterile tubes (200 μl of 2 mM EDTA). Diuresis was measured and the production of 8-hydroxy-2′-deoxyguanosine (8-OH-dG) was quantified by ELISA assay (Oxis, Bioxytech).
The rats were anaesthetised by intraperitoneal injection of pentobarbital sodium (50 mg/kg, Ceva laboratories). Blood was sampled from the carotid artery (sampling into heparin 5000 IU/ml) in order to measure thiostatin production by ELISA assay (Life Diagnostics). The heart was excised, dried and weighed, and cardiac hypertrophy was determined by dividing the weight of the dry heart by the body weight for each animal in order to standardise the measurement.
as §2

The subject of assay [4] is atherosclerotic lesion. Kind of assay: experimental models of anti-proliferative, anti-atheromatous and anti-inflammatory effects. The assay is classed as in vivo.
In assay [5] the test system is thrombus. The assay can be described thus: ex vivo anti-thrombotic activity, perfusion chamber model, in patients at high risk of ischaemic CVA. The source says:
In this study, the sodium salt of the (R) isomer of the compound of formula (I) also has an effect on the measured markers of inflammation (sVCAM, sPAI-1, sP-selectin, thrombomodulin).

Assay [6] concerns radial artery. The assay can be described thus: peripheral vasomotor response, provoked hyperaemia test in atheromatous patients. Format: in vivo. The following applies: versus placebo, patients treated with aspirin; whatever the dose, single or repeated administration (15 days), about 2 hours after administration. On the procedure:
This superiority is observed whatever the dose, after single administration or repeated administration (15 days), the vasodilatory effect being evaluated about 2 hours after administration of the medicament.

[7] abbreviates: after 10 days of administration, compared with aspirin.

Where a name gives a salt, the structure may show the parent alone.

Turning to `Cc1ccc2c(c1CCC(=O)O)CCC(NS(=O)(=O)c1ccc(Cl)cc1)C2` [sodium salt of the (R) isomer of the compound of formula (I), 3-{6-[(4-chlorophenylsulphonyl)amino]-2-methyl-5,6,7,8-tetrahydro-naphth-1-yl}propionic acid], in assay [1], the “time after which half the rats were dead (survival)” value stood at 99 days. The occlusion time entry in assay [2] was “lengthens the occlusion time in dose-dependent manner”. Further, in assay [3], the “cardiac hypertrophy (dry heart weight / body weight)” value is “less marked”, the “plasma thiostatin (acute inflammation)” value is given as “lower” and the “total amount of 8-OH-dG in urines over 24 hours (oxidative stress)” value is listed as “reduced”. Besides, in assay [4], the “expression of adhesion molecules and markers such as endothelin, ICAM and VCAM” value was “inhibits”; the “infiltration of macrophages into the vascular wall” value is “inhibits”; the intima/media ratio entry was “significantly reduces”; the serum cholesterol entry is “without reducing”. Besides, in assay [4], the “surface area of the atherosclerotic lesion” value is recorded as “significantly reduces” and the “thickness of the vascular wall” value was “significantly reduces”. In assay [5] (setting [7]), the “% adhesion” value was “superiority”, the “dense surface area of the thrombus” value is on record as “superiority” and the “total surface area of the thrombus” value is “superiority”. Further, the “measured markers of inflammation (sVCAM, sPAI-1, sP-selectin, thrombomodulin)” value in assay [5] (patients at high risk of ischaemic CVA) was “has an effect”. In assay [6], the endothelium-dependent vasodilation result is given as “superiority”.
